# Results reported in US10321682B2, “Pesticidal aryl pyrrole nitrile compound, preparation method for same, uses thereof, agricultural pesticide, and pest control method” (HENAN GOODDAYS BIOLOGY DEVELOPMENT CO., LTD., priority 2016, dated 2019).
# Like-named read-outs stand apart in the source and are kept apart here.
# Experiments:
# [1] = Acute oral toxicity in rats; settings: both sexes, rat, in vivo, both female rats and male rats
# [2] = Acute percutaneous toxicity in rats; settings: both sexes, rat, in vivo, topical; both female rats and male rats
# [3] = Toxicity to Japanese carp; settings: in vivo
# [4] = system: rats; settings: cited from earlier work
SMILES,LD50 [1],LD50 [2],LC50 [3],acute oral LD50 ([4]; female rats),acute oral LD50 ([4]; male rats)
N#Cc1c(Br)c(C(F)(F)F)n(Cc2cnc(Cl)s2)c1-c1ccc(Cl)cc1 [4-bromo-2-(4-chlorophenyl)-1-(2-chloro-5-thiazolylmethyl)-5-trifluoromethylpyrrole-3-carbonitrile],> 5000 mg/kg,> 2000 mg/kg,2.5 mg/L,,
"CCOCn1c(-c2ccc(Cl)cc2)c(C#N)c(Br)c1C(F)(F)F [Chujin, 4-bromo-2-(4-chlorophenyl)-1-ethoxymethyl-5-trifluoromethylpyrrole-3-carbonitrile]",,,,459 mg/kg,223 mg/kg
